Where two headings read alike, the source gives them in different places.
Key:
[1] = tested on: Venturia inaequalis; Bayer Code VENTIN; assay: Apple scab; type: in vivo; details: 24 h, % disease control rating, one day protectant; for pest or weed control at 25 ppm: read-out: VENTIN 1 DP 25 ppm; for pest or weed control at 75 ppm: read-out: VENTIN 1 DP 75 ppm
[2] = tested on: Mycosphaerella graminicola; Anamorph: Septoria tritici; Bayer Code SEPTTR; assay: Leaf blotch of wheat, foliar fungicide treatment, one day protectant (1DP) or three day curative (3DC); type: in vivo, Septoria tritici on wheat plants (variety Yuma); details: Zymoseptoria tritici; for pest or weed control at 200 ppm: % disease control rating
[3] = tested on: Cercospora beticola; Bayer Code CERCBE; assay: Leaf spot of sugar beets; type: in vivo, Cercospora beticola on sugar beets (variety HH-88); details: 24 h, % disease control rating, one day protectant; for pest or weed control at 25 ppm: read-out: CERCBE 1 DP 25 ppm; for pest or weed control at 75 ppm: read-out: CERCBE 1 DP 75 ppm
[4] = 24 h, one day protectant, rating of percent disease control, read-out: SETTTR 1DP 25 ppm
[5] = 24 h, one day protectant, rating of percent disease control, read-out: SEPTTR 1DP 100 ppm
[6] = 72 h, three day curative, rating of percent disease control, read-out: SEPTTR 3DC 25 ppm
[7] = 72 h, three day curative, rating of percent disease control, read-out: SEPTTR 3DC 100 ppm
[8] = 24 h, one day protectant (1DP), percent disease control rating, read-out: SETTTR 1DP 25 ppm
[9] = 24 h, one day protectant (1DP), percent disease control rating, read-out: SEPTTR 1DP 100 ppm
[10] = 72 h, three day curative (3DC), percent disease control rating, read-out: SEPTTR 3DC 25 ppm
[11] = 72 h, three day curative (3DC), percent disease control rating, read-out: SEPTTR 3DC 100 ppm
[12] = 24 h, one day protectant (1DP), rating of percent disease control, read-out: SETTTR 1DP 25 ppm
[13] = 24 h, one day protectant (1DP), rating of percent disease control, read-out: SEPTTR 1DP 100 ppm
[14] = 72 h, three day curative (3DC), rating of percent disease control, read-out: SEPTTR 3DC 25 ppm
[15] = 72 h, three day curative (3DC), rating of percent disease control, read-out: SEPTTR 3DC 100 ppm

| SMILES | pest or weed control at 25 ppm [1] [%] | pest or weed control at 75 ppm [1] [%] | pest or weed control at 25 ppm [2, 4] [%] | pest or weed control at 100 ppm [2, 5] [%] | pest or weed control at 25 ppm [2, 6] [%] | pest or weed control at 100 ppm [2, 7] [%] | pest or weed control at 25 ppm [3] [%] | pest or weed control at 75 ppm [3] [%] | pest or weed control at 25 ppm [2, 8] [%] | pest or weed control at 100 ppm [2, 9] [%] | pest or weed control at 25 ppm [2, 10] [%] | pest or weed control at 100 ppm [2, 11] [%] | pest or weed control at 200 ppm ([2]; 24 h, one day protectant) [%] | pest or weed control at 25 ppm [2, 12] [%] | pest or weed control at 100 ppm [2, 13] [%] | pest or weed control at 25 ppm [2, 14] [%] | pest or weed control at 100 ppm [2, 15] [%] |
| --- | --- | --- | --- | --- | --- | --- | --- | --- | --- | --- | --- | --- | --- | --- | --- | --- | --- |
| Nc1nc(OCCCc2ccccn2)ncc1F [Compound 635] | 26 to 50 | 76 to 100 | 26 to 50 | 76 to 100 | 0 to 25 | 76 to 100 | 26 to 50 | 26 to 50 |  |  |  |  |  |  |  |  |  |
| CCCCCCOc1ncc(F)c(/N=C/N(C)C)n1 [Compound 68] | 51 to 75 | 76 to 100 |  |  |  |  | 51 to 75 | 51 to 75 | 0 to 25 | 51 to 75 | 0 to 25 | 51 to 75 |  |  |  |  |  |
| Nc1nc(OCCSc2ccc(Cl)cc2)ncc1F [Compound 719] | 51 to 75 | 51 to 75 | 0 to 25 | 51 to 75 |  |  | 0 to 25 | 26 to 50 |  |  |  |  |  |  |  |  |  |
| Fc1cnc(OCc2ccccn2)nc1NC1CC1 [Compound 952] | 0 to 25 | 0 to 25 |  |  |  |  | 0 to 25 | 0 to 25 |  |  |  |  | 26 to 50 |  |  |  |  |
| CCn1nccc1Oc1ncc(F)c(N)n1 [Compound 584] | 26 to 50 | 26 to 50 | 0 to 25 | 76 to 100 | 0 to 25 | 76 to 100 | 26 to 50 | 26 to 50 |  |  |  |  |  |  |  |  |  |
| Nc1nc(OCc2ccc(Cl)c([N+](=O)[O-])c2)ncc1F [Compound 707] | 51 to 75 | 51 to 75 | 76 to 100 | 76 to 100 | 76 to 100 | 76 to 100 | 51 to 75 | 26 to 50 |  |  |  |  |  |  |  |  |  |
| Fc1cnc(OCc2ccc(OC(F)(F)F)cc2)nc1NCc1cccs1 [Compound 860] | 26 to 50 | 51 to 75 |  |  |  |  | 0 to 25 | 26 to 50 |  |  |  |  | 76 to 100 |  |  |  |  |
| Nc1nc(OCc2nc(Cl)ccc2Cl)ncc1F [Compound 141] | 0 to 25 | 26 to 50 |  |  |  |  | 0 to 25 | 0 to 25 | 0 to 25 | 76 to 100 | 51 to 75 | 26 to 50 |  |  |  |  |  |
| CC(Oc1ncc(F)c(NCOCc2ccccc2)n1)c1ccc(F)cc1 (stereo not shown) [Compound 121] | 76 to 100 | 26 to 50 |  |  |  |  | 0 to 25 | 0 to 25 | 51 to 75 | 76 to 100 | 51 to 75 | 76 to 100 |  |  |  |  |  |
| Cc1nc(COc2ncc(F)c(N)n2)cs1 [Compound 436] | 76 to 100 | 76 to 100 |  |  |  |  | 51 to 75 | 26 to 50 |  |  |  |  |  | 76 to 100 | 76 to 100 | 76 to 100 | 76 to 100 |
| Cc1ccc(COc2ncc(F)c(NN)n2)cc1 [Compound 538] | 26 to 50 | 51 to 75 |  |  |  |  | 0 to 25 | 0 to 25 |  |  |  |  |  | 26 to 50 | 51 to 75 | 51 to 75 | 76 to 100 |
| CCCNC(=O)Nc1nc(OCc2cccc(C#N)c2)ncc1F [Compound 163] | 0 to 25 | 26 to 50 |  |  |  |  | 0 to 25 | 0 to 25 | 0 to 25 | 0 to 25 | 0 to 25 | 0 to 25 |  |  |  |  |  |
